Results from publication PMC9855422, “Purification and Properties of Polyphenol Oxidase of Dried Volvariella bombycina” (Biology, 2022).
Values belong to the molecule of their own block, whether it stands above or below them.

Legend:
[1] = test system: T1, dried V. bombycina PPO (polyphenol oxidase); assay: spectrophotometric oxidation at […] nm, Lineweaver-Burk; format: biochemical, Volvariella bombycina
T1 construct: single band about 25 kDa on SDS-PAGE

[2] = test system: T1, dried V. bombycina PPO (polyphenol oxidase); assay: as above; format: biochemical, Volvariella bombycina; conditions: optimum pH 8.0, 15 °C

- Km ([1]; optimum pH 9.0, 20 °C): 3170 µM
Compound: Cc1ccc(O)c(O)c1 [4-methyl catechol]

Compound: Oc1ccccc1O [catechol]
- Km ([1]; optimum pH 6.5, 15 °C, 0.1 M phosphate buffer): 1670 µM

- Km [2]: 2670 µM
Compound: Oc1cccc(O)c1O [pyrogallol]
